The values below come from publication PMC9471048, “The signaling and selectivity of α‐adrenoceptor agonists for the human α2A, α2B and α2C‐adrenoceptors and comparison with human α1 and β‐adrenoceptors” (Pharmacology Research & Perspectives, 2022).

The target of assay [1] is T1, human α2C‐adrenoceptor (Homo sapiens, UniProt P18825).
T1 sequence (P18825 1-462): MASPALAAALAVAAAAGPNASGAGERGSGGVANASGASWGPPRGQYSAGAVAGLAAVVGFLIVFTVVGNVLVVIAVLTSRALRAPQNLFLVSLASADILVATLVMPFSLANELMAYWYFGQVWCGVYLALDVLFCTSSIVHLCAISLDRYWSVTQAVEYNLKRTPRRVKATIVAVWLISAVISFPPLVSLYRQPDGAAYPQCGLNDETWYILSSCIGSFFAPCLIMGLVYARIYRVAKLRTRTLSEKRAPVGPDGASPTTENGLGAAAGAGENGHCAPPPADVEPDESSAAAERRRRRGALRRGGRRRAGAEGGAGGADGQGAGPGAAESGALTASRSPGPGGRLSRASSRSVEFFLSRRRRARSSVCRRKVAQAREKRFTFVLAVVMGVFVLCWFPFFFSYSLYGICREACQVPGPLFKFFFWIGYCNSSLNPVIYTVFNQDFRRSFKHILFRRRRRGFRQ

Assay [2] has as its target T2, human α2A‐adrenoceptor (Homo sapiens, UniProt P08913).
T2 sequence (P08913 1-465): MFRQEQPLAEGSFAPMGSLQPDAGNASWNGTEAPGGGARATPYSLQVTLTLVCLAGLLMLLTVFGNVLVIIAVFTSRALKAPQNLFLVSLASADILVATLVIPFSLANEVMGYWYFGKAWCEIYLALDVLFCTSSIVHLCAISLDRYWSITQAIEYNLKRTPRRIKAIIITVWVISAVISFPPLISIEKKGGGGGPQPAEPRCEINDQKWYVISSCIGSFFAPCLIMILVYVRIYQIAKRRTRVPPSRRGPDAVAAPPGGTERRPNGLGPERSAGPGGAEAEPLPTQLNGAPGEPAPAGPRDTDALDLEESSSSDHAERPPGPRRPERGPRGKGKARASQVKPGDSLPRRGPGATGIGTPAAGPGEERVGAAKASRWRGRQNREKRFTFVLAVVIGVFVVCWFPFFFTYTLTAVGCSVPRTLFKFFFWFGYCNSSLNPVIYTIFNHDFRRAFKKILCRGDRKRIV

The target in assay [3] is T1, human α2C‐adrenoceptor. The assay can be described thus: 3H‐rauwolscine whole cell binding in CHO‐α2C cells. On the set-up: expressed in transfected cells; host or cells: CHO-K1 with CRE-SPAP reporter.
Assay [4] deals with T1, human α2C‐adrenoceptor. The assay is described as follows: ERK1/2‐phosphorylation in CHO‐α2C cells. The assay is classed as cell-based. On the set-up: expressed in transfected cells; host or cells: CHO-K1 with CRE-SPAP reporter.
In assay [5] the target is T2, human α2A‐adrenoceptor. The assay is described as follows: ERK1/2‐phosphorylation in CHO‐α2A cells. In kind it is cell-based. On the set-up: expressed in transfected cells; host or cells: CHO-K1 with CRE-SPAP reporter.
Assay [6] addresses T2, human α2A‐adrenoceptor. The assay can be described thus: 3H‐rauwolscine whole cell binding in CHO‐α2A cells. The arrangement: expressed in transfected cells; host or cells: CHO-K1 with CRE-SPAP reporter.
[7] abbreviates: CHO‐α2C cells, CRE‐SPAP production in the absence of forskolin.
The mark [8] stands for this setting: CHO‐α2A (cell line 1), absence of forskolin.
Where [9] appears, read: 3H‐rauwolscine whole cell binding, living cells, negative log KD, mean ± SEM, read-out: Log KD, CHO‐α2C (converted).
Where [10] appears, read: CHO‐α2C cells, 3H‐rauwolscine whole cell binding, given as negative log KD, mean only (SEM in Table 4), read-out: Log KD (converted).
Where [11] appears, read: fold, from KD values, 1 = no selectivity.
Setting [12] is: CHO‐α2C cells, given as negative log EC50, mean ± SEM, read-out: Log EC50, ERK1/2‐phosphorylation (converted).
Setting [13] is: CHO‐α2A, read-out: Log EC50, ERK1/2‐phosphorylation (converted).
[14] abbreviates: read-out: Log KD (binding) (converted).
Setting [15] is: read-out: Log KD, CHO‐α2A (converted).

SMILES strings stand for the structures. Read-outs that look alike come from different tables or passages of the source.

As usually defined, the IC50 is the concentration that inhibits the measured activity by half. A low value points to greater potency. What is called Kd is the concentration at which binding is half-saturated. On to `C[C@H](N)[C@H](O)c1cccc(O)c1` [Metaraminol], for which the figures for the IC50 in assay [1] and in assay [2] were 0.794 µM and 3.16 µM, respectively. The “% inhibition, CRE‐SPAP (with forskolin)” value worked out at 85.5 ± 1.8% in assay [1] (CHO‐α2C cells, % inhibition from the 3 μM forskolin control, mean ± SEM) and 87.0 ± 1.3% in assay [2] (CHO‐α2A (cell line 1), % inhibition from the 3 μM forskolin control, inhibition only). The “Log EC50 (Gs), CRE‐SPAP (without forskolin)” value (“Log EC50 … (without forskolin)” for short) in assay [1] (setting [7]) and in assay [2] (setting [8]) was “No response” each time. Further, the “Log efficacy ratio (KD/IC50)” value in assay [1] (CHO‐α2C cells, log KD from 3H‐rauwolscine binding versus CRE‐SPAP log IC50) was found to be 1.56; in assay [2] (CHO‐α2A, binding KD / Gi IC50 of CRE‐SPAP), 1.22. The Kd is 28.8 µM in assay [3] (setting [9]), 28.8 µM in assay [3] (setting [10]), 52.5 µM in assay [6] (setting [14]) and 52.5 µM in assay [6] (setting [15]). The “Selectivity ratio α2A vs α2C (higher affinity for α2C)” value in assay [3] (setting [11]) is recorded as 1.8. Also, in assay [3] (setting [11]), the “Selectivity ratio α2B vs α2C (higher affinity for α2C)” value amounted to 2.7. The “% 10 μM PDBu, ERK1/2‐phosphorylation” value in assay [4] (CHO‐α2C cells, maximum response compared to 10 μM PDBu, mean ± SEM) was 158.8 ± 22.2%; in assay [5] (CHO‐α2A, maximum response compared to 10 μM PDBu), 136.4 ± 13.9%. Also, the results for the EC50 in assay [4] (setting [12]) and in assay [5] (setting [13]) were 0.158 µM and 0.24 µM, respectively. The “Selectivity ratio α2A vs α2B (higher affinity for α2A)” value in assay [6] (setting [11]) turned out to be 1.5.
As to `CNCC(O)c1ccc(O)cc1` (centres unmarked) [Synephrine], the “% inhibition, CRE‐SPAP (with forskolin)” value was 88.1 ± 8.5% in assay [1] and 75.6 ± 5.6% in assay [2]. Further, the IC50 in assay [1] is 34.7 µM; in assay [2] it was 9.55 µM. Further, the “Log EC50 … (without forskolin)” value in assay [1] and in assay [2] was “No response” each time. For the same compound, the values for the Kd in assay [3] and in assay [6] were 120 µM and 89.1 µM, respectively. The figures for the “% 10 μM PDBu, ERK1/2‐phosphorylation” value in assay [4] and in assay [5] were 112.8 ± 10.7% and 114.5 ± 12.3%, respectively. Further, the EC50 was 3.24 µM in assay [4] and 0.776 µM in assay [5].
As to `CC(CCc1ccc(O)cc1)NCCc1ccc(O)c(O)c1` (centres unmarked) [Dobutamine], half-maximal inhibition in assay [1] (IC50) was put at 20.9 µM. Also, the “Log EC50 … (without forskolin)” value in assay [1] (setting [7]) and in assay [2] (setting [8]) was “No response” throughout. In assay [2] (CHO‐α2A (cell line 1, 5830 fmol/mg protein), 3 μM forskolin), the “Log IC50 (Gi), CRE‐SPAP (with forskolin)” value is reported as “No response”. Further, the Kd was 5.5 µM in assay [3] (setting [9]), 5.5 µM in assay [3] (setting [10]), 20.4 µM in assay [6] (setting [14]) and 20.4 µM in assay [6] (setting [15]). The values for the EC50 in assay [4] (setting [12]) and in assay [5] (setting [13]) were 0.759 µM and 2 µM, respectively.
